Key:
human TLR7 = biological target: T1, human TLR7 (Homo sapiens, UniProt Q9NYK1); assay: Inhibition of human TLR7 in human plasmacytoid dendritic cells (interferon-alpha ELISA); assay type: cell-based; conditions: agonist heat inactivated influenza virus, 24 hours
T1 construct: Human plasmacytoid dendritic cells were plated into 96 well plates; endogenous in cells; host or cells: primary human plasmacytoid dendritic cells from buffy coats of healthy donors
T1 sequence (Q9NYK1 27-1049): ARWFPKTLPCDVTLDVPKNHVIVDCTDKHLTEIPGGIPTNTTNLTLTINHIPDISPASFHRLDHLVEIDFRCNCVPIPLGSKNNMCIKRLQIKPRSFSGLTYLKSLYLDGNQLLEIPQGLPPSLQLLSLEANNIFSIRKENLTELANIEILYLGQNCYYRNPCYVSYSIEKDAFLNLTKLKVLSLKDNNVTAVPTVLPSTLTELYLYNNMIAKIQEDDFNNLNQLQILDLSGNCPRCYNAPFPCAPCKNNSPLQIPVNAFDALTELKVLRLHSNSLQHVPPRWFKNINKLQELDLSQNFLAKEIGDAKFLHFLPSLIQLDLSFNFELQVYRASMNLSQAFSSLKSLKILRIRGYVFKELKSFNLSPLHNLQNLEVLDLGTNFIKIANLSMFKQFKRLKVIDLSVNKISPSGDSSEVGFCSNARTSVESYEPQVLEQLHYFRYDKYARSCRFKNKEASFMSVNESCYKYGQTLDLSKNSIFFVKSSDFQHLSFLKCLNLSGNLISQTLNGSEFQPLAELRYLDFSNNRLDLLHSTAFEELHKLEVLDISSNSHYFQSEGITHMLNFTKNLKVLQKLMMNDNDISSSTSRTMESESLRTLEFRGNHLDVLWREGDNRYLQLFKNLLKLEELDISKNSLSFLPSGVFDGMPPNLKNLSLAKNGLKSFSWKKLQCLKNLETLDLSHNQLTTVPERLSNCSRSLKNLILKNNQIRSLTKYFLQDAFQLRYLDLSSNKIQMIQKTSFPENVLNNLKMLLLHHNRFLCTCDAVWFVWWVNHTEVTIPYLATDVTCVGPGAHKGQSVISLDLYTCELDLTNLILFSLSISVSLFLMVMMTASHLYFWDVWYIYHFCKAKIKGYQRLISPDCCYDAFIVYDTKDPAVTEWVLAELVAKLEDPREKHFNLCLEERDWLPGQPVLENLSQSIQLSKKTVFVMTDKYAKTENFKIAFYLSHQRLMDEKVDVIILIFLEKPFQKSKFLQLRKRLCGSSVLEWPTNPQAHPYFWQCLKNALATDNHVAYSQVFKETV

human TLR9 = biological target: T2, human TLR9 (Homo sapiens, UniProt Q9NR96); assay: Inhibition of human TLR9 in human B cells (IL-6 ELISA); assay type: cell-based; conditions: for IC50: human B cells, agonist 1018 ISS 1 μM, IL-6 readout, 48 hours, range about 0.01 to 10 μM, read-out: Human TLR9 IC50; for inhibits TLR9-dependent responses (in words): summary statement of the description
T2 construct: endogenous in cells; host or cells: primary human B cells (CD19 microbeads) from buffy coats of healthy donors
T2 sequence (Q9NR96 26-1032): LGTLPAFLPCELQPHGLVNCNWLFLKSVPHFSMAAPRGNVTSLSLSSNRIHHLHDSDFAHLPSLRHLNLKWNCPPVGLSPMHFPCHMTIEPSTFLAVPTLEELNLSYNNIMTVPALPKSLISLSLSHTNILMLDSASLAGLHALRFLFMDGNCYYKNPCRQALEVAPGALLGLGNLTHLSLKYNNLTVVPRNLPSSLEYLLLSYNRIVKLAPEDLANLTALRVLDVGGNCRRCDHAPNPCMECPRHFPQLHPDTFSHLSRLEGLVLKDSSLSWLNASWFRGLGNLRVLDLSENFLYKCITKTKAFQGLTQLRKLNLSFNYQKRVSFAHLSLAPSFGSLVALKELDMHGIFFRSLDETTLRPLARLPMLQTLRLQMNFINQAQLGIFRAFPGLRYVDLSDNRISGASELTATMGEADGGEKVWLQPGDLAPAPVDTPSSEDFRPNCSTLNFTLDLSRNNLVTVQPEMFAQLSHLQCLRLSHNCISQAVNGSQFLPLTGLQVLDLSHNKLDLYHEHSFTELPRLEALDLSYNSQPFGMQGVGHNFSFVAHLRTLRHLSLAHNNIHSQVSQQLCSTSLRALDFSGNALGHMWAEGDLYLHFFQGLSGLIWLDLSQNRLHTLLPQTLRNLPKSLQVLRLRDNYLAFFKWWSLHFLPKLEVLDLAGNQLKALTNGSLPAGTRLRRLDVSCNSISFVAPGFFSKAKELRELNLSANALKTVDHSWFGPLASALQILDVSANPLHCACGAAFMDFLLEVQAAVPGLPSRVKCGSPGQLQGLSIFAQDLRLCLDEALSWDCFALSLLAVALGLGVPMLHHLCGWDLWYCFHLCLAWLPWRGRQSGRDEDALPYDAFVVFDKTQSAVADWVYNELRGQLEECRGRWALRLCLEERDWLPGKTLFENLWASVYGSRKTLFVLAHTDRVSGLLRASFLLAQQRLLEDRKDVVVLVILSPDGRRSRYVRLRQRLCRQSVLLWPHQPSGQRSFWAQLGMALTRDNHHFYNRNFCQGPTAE
Summary of the method: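 Primary human B cells (CD19-isolated from donor buffy coats), ~300,000 per well, treated with compound (about 0.01–10 μM, some 0.001–30 μM) then 1 μM CpG oligonucleotide 1018 ISS. After 48 hours at 37° C, supernatant IL-6 measured by ELISA; IC50 from concentration-response of TLR9-dependent activity.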

| Compound | IC50 (human TLR7) | IC50 (human TLR9) | inhibits TLR9-dependent responses (in words) (human TLR9) |
| --- | --- | --- | --- |
| Cc1ccc(-n2nc3c(N4CCC(C(=O)NCC(C)(C)CNc5ccccc5)CC4)nnc(C)c3c2C)cc1 [2-1] | > 10000 nM | 4650 nM | – |
| Cc1ccc(-n2nc3c(N4CCC(C(=O)NCCCN(C)Cc5ccccc5)CC4)nnc(C)c3c2C)cc1 [Compound No. 1, N-(3-(benzyl(methyl)amino)propyl)-1-(3,4-dimethyl-2-(p-tolyl)-2H-pyrazolo[3,4-d]pyridazin-7-yl)piperidine-4-carboxamide] | 2970 nM | 40 nM | inhibit |
| Cc1ccc(-n2nc3c(N4CCC(C(=O)N5CCN(Cc6ccccc6)CC5)CC4)nnc(C)c3c2C)cc1 [Compound No. 2, (4-benzylpiperazin-1-yl)(1-(3,4-dimethyl-2-(p-tolyl)-2H-pyrazolo[3,4-d]pyridazin-7-yl)piperidin-4-yl)methanone] | 9930 nM | 242 nM | inhibit |
| Cc1ccc(-n2nc3c(N4CCC(C(=O)NC5CN(C)C5)CC4)nnc(C)c3c2C)cc1 [Compound No. 3, 1-(3,4-dimethyl-2-(p-tolyl)-2H-pyrazolo[3,4-d]pyridazin-7-yl)-N-(1-methylazetidin-3-yl)piperidine-4-carboxamide] | – | 143 nM | – |
| Cc1ccc(-n2nc3c(N4CCC(C(=O)NC5CN(Cc6ccccc6)C5)CC4)nnc(C)c3c2C)cc1 [Compound No. 4, N-(1-benzylazetidin-3-yl)-1-(3,4-dimethyl-2-(p-tolyl)-2H-pyrazolo[3,4-d]pyridazin-7-yl)piperidine-4-carboxamide] | 3360 nM | 93 nM | inhibit |
| Cc1ccc(-n2nc3c(N4CCC(C(=O)NCCCN(C)C)CC4)nnc(C)c3c2C)cc1 [Compound No. 5, 1-(3,4-dimethyl-2-(p-tolyl)-2H-pyrazolo[3,4-d]pyridazin-7-yl)-N-(3-(dimethylamino)propyl)piperidine-4-carboxamide] | 2230 nM | 40 nM | inhibit |
| Cc1ccc(-n2nc3c(N4CCC(C(=O)NCCCc5c[nH]cn5)CC4)nnc(C)c3c2C)cc1 [Compound No. 6, N-(3-(1H-imidazol-4-yl)propyl)-1-(3,4-dimethyl-2-(p-tolyl)-2H-pyrazolo[3,4-d]pyridazin-7-yl)piperidine-4-carboxamide] | > 10000 nM | 154 nM | – |
| Cc1ccc(-n2nc3c(N4CCC(CCC(=O)NCCN(C)C)CC4)nnc(C)c3c2C)cc1 [Compound No. 9, 3-(1-(3,4-dimethyl-2-(p-tolyl)-2H-pyrazolo[3,4-d]pyridazin-7-yl)piperidin-4-yl)-N-(2-(dimethylamino)ethyl)propanamide] | > 10000 nM | 3 nM | – |
